# According to publication PMC9712658, “Structural analysis of the 2-oxoglutarate binding site of the circadian rhythm linked oxygenase JMJD5” (Scientific Reports, 2022):
# Target: T1, full-length JMJD5 (aa 1–416, JMJD5^FL) (Homo sapiens, UniProt Q8N371)
# T1 construct: 10 µM full-length JMJD5 (aa 1–416); His6 (N); made in house; host or cells: Escherichia coli Rosetta2(DE3)-pLysS
# Assay: JMJD5 inhibition assay by MALDI-TOF MS (hydroxylation of RpS6_129-144 peptide)
# Assay type: biochemical
# Settings: 10 µM JMJD5^FL, 100 µM Fe(II), 400 µM ascorbate, 50 µM 2OG, 100 µM RpS6_129-144, inhibitor 0–10 mM; mean (n = 3) ± SD
# Excerpt: To explore inhibition involving orthosteric 2OG ligand binding in the JMJD5 2OG pocket, we initially screened a focused set of compounds comprising relatively close 2OG mimetics, tricarboxylic acid (TCA) cycle intermediates, hypoxia inducible factor (HIF) prolyl hydroxylase (PHD) inhibitors, and JmjC histone demethylase (KDM) inhibitors (Supplementary Fig. S1).
# […] Hydroxylation of RpS6 peptide was monitored by MALDI-TOF MS and intensity of hydroxylated peak was quantified to determine the extent of inhibition caused by inhibitor.
# T1 sequence (Q8N371 whole entry, the tested form may be a part): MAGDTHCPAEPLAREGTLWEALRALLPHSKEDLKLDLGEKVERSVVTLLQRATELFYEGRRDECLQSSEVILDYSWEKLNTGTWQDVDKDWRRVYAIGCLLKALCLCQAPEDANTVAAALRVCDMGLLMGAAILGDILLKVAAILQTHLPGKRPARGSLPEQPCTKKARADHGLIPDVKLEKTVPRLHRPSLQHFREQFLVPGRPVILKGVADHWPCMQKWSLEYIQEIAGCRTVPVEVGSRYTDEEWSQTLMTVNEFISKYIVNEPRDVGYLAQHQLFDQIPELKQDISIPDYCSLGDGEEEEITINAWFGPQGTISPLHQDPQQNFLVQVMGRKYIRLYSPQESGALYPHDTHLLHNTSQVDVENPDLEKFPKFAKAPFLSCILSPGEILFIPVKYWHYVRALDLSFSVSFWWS
row,Structure (SMILES),IC50 [µM]
1,"O=C(O)c1ccnc(-c2cc(C(=O)O)ccn2)c1 [2.4-BPDCA, bipyridinyl-2,4-dicarboxylate]",66 ± 1.5
2,O=C(O)CNC(=O)c1ncc(-c2cccc(F)c2)cc1O [AKB-6899],288 ± 1.5
3,O=C(O)CC(O)(CC(=O)O)C(=O)O [Citrate],820 ± 1.8
4,"O=C(O)CC[C@@H](O)C(=O)O [D-2HG, D-2-hydroxyglutarate]",1268 ± 1.5
5,Cc1nc(C(=O)NCC(=O)O)c(O)c2ccc(Oc3ccccc3)cc12 [FG4592],239 ± 1.9
6,O=C(O)CCNc1cc(N2CCc3ccccc3CC2)nc(-c2ccccn2)n1 [GSK-J1],67 ± 1.5
7,"O=C(O)c1ccc(O)c2ncccc12 [IOX1, 5-carboxy-8-hydroxyquinoline]",96 ± 1.7
8,CCN(CCN(C)C)C(=O)CNCc1cc(C(=O)O)ccn1 [KDM5-C49],621 ± 1.4
9,"O=C(O)CC[C@H](O)C(=O)O [L-2HG, L-2-hydroxyglutarate]",340 ± 1.3
10,CN(C)CCCNC(=O)c1ccc(-c2cc(O)c3ncccc3c2)cc1 [ML-324],15 ± 1.4
11,O=C(O)CC(O)C(=O)O (stereo not shown) [Malate],1604 ± 1.4
12,"O=C(O)CNC(=O)C(=O)O [NOG, N-oxalylglycine]",6 ± 1.4
13,O=C(O)CC(=O)C(=O)O [Oxaloacetate],85 ± 1.4
14,CC(=O)C(=O)O [Pyruvate],500 ± 1.6
15,O=C(O)CCC(=O)O [Succinate],840 ± 1.4

# Same assay, conditions: screen at 0.1, 1 and 10 mM and/or IC50 determination
row,Structure (SMILES),JMJD5 inhibition (in words)
1,CN(C)NC(=O)CCC(=O)O [daminozide],"Neither daminozide (a plant growth regulator that inhibits the JmjC KDM 2/7 oxygenases[56]), nor its structural derivative 7 appear to inhibit JMJD5"
